Data on ten molecules can be found in article PMC10671052, “Naphthyl-Substituted Indole and Pyrrole Carboxylic Acids as Effective Antibiotic Potentiators—Inhibitors of Bacterial Cystathionine γ-Lyase” (International Journal of Molecular Sciences, 2023).

In series [1] the test system is P. aeruginosa GIMC5016:PA1840/36/2015. Description: Susceptibility of isolate to main antimicrobial agents. In kind it is cell-based.
Series [2] has the same test system. As to the kind of experiment: MIC of antibiotics alone and with potentiators, clinical isolate. The note with it: P. aeruginosa GIMC5016:PA1840/36/2015, no potentiator.
Description: (§3) Overnight (ON) culture of a specific strain was grown in the liquid Luria–Bertani nutrient medium (LB broth, BD Difco) for 18 h at 37 °C, with agitation at 180 rpm using an Innova 44R orbital shaker (Eppendorf, Hamburg, Germany). After a certain period, 50 µL of the ON culture was transferred into 5 mL of the LB medium and grown for 3 h at 37 °C with agitation. Growth in the liquid medium was assessed by means of turbidity of the suspension, measured using a Densi-La-Meter II densitometer (Erba Lachema s.r.o., Brno, Czech Republic). Then, the bacterial suspension was diluted to the concentration 10^6 cells/mL with sterile LB and used as a seed culture [38, 39].
(§4) For the assessment of MICs, 96-well microtiter plates were utilized at 200 µL of a medium per well. Each well was filled with 100 µL of the seed culture. After that, 10 µL of a solution of each tested synthetic compound (potentiators) was added into each experimental well. Finally, 90 µL of twofold serial dilutions of an antibiotic in a sterile LB was added into individual wells.
(§5) As a positive control, we set up wells with 100 µL of the bacterial culture and 100 µL of the sterile LB medium. […] Negative-control wells contained 200 µL of the sterile medium. The plates were incubated in a thermostat for 18–20 h at 37 °C. The bacterial growth was assessed as optical density at 600 nm on a CLARIOstar microplate reader (BMG LABTECH GmbH, Ortenberg, Germany)).
The subject of series [3] is A. baumannii GIMC5509:ABT-52Ts19. The series is described as above. The note with it: A. baumannii GIMC5509:ABT-52Ts19, no potentiator.
Description: as §3, §4, §5
Series [4] concerns the target S. aureus cystathionine-γ-lyase (bCSE) (Staphylococcus aureus, UniProt A0A0H3K724). Description: IC50 assay: inhibition of H2S production by purified bCSE, WSP5 fluorescent probe. It counts as biochemical. The procedure: (§1) Fluorescence spectrophotometry-based inhibitory activity toward purified bCSE and hCSE was measured in a 96-well nonbinding black plate (Greiner, Kremsmunster, Austria) at 100 μL of the reaction mixture per well. bCSE and hCSE (0.02 μM) were preincubated in a thermoshaker (Biosan, Riga, Latvia) (30 °C, 300 rpm) for 40 min in 50 mM sodium phosphate buffer (pH 8.0), supplemented with 10 μM pyridoxal 5′-phosphate (Sigma-Aldrich, St. Louis, MO, USA), 0.1% of Tween 20 (Sigma-Aldrich, St. Louis, MO, USA), and 1.2 μM Washington State Probe-5 (Cayman Chemical, Ann Arbor, MI, USA) (excitation: 500 nm, emission: 530 nm) at different concentrations of a tested inhibitor. The reaction was initiated by the addition of 100 μM L-cysteine (TCI, Chennai, Tamil Nadu, India) in 50 mM sodium phosphate buffer pH 8.0 to the reaction mixture, and the enzymatic activity was monitored for 12 h using a CLARIOstar Plus instrument (BMG LABTECH GmbH, Ortenberg, Germany). The 100 µM L-cysteine concentration used in the experiments corresponds to the maximal reported intracellular concentration in bacteria. The data were normalized to the positive and negative controls, and IC50 values were obtained by fitting to a four-parameter sigmoidal curve (inhibitor vs. response, variable slope model) in GraphPad Prism 8 software (GraphPad by Dotmatics, Boston, MA, USA). Each experiment was conducted with 2–3 technical replicates. IC50 values were means of at least two independent experiments.
(§2) For the production of S. aureus cystathionine-γ-lyase (bCSE) and of human cystathionine-γ-lyase (hCSE), plasmids pSUMO:saCSE (Addgene # 54336) and pNIC28-Bsa4 (Addgene # 42365) were employed. Cultivation of a competent E. coli cell strain (Thermo Fisher Scientific, Waltham, MA, USA), transformed with a target plasmid, was carried out on a selective solid medium with kanamycin. Bacterial cells harboring the plasmid vector were cultured at 37 °C and 180 rpm until OD600 = 0.65. Then, isopropyl β-D1-thiogalactopyranoside (IPTG) was added to a final concentration of 1 mM. To obtain bCSE, the cells were cultured for 3.5 h at 37 °C; to obtain hCSE, the cells were cultured for 18–20 h at 25 °C. After centrifugation, cells were resuspended in a buffer composed of 50 mM Tris–HCl, at a pH of 8.0, and 300 mM sodium chloride. After that, the cells were lysed by ultrasonication, with a pulse duration of 15 s and an interval between pulses of 15 s. The amplitude of the ultrasonic vibrations was 50% of the maximum. After lysis, samples were centrifuged for 15 min (20,000× g at 4 ℃). The pH of the supernatant obtained after the centrifugation was adjusted to 7.5 by the addition of a 1 M solution of Tris–OH. Then, the test sample was subjected to filtration through a polyethersulfone membrane with a pore diameter of 0.22 μm.

The target of series [5] is T1, human cystathionine-γ-lyase (hCSE) (Homo sapiens, UniProt P32929).
T1 construct: His6-TEV (N, cleaved yes); host or cells: E. coli
T1 sequence (P32929 whole entry): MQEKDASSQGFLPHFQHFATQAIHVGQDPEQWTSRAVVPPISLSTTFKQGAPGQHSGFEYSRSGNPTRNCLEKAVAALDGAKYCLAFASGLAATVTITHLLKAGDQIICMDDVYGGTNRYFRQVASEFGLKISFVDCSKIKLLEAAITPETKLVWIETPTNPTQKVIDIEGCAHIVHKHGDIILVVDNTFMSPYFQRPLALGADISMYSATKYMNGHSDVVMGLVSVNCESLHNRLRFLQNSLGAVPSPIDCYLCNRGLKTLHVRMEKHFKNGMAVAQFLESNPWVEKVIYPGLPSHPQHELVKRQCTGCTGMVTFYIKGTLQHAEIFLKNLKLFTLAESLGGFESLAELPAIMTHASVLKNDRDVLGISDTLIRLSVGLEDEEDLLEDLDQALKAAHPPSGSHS
Description: IC50 assay: inhibition of H2S production by purified hCSE, WSP5 fluorescent probe. In kind it is biochemical. The note with it: purified hCSE 0.02 μM, 100 μM L-cysteine, WSP5 probe, mean ± SD; read-out: IC50 biochemical assay hCSE. The procedure: as §1, §2

Series [6] is described as follows: HEK293 cytotoxicity assay (Alamar Blue). The note with it: human, HEK293 cells, HEK293, 72 h. It counts as cell-based. The procedure: The HEK 293 cell line was obtained from the European Collection of Authenticated Cell Cultures (ECACC, cat. # 85120602, Salisbury, UK). The cells were grown in a monolayer culture in Dulbecco’s Modified Eagle’s Medium (DMEM) (PanEco, Moscow, Russia), supplemented with 2 mM L-glutamine, 1% of a penicillin/streptomycin solution (Capricorn Scientific, Ebsdorfergrund, Germany), and 10% of heat inactivated fetal bovine serum (HyClone, Cytiva, Marlborough, MA, USA) in a humidified atmosphere containing 5% of CO2 at 37 °C (Binder, Germany). For the assay, HEK 293 cells were seeded in a 96-well plate (Corning, NY, USA) in 100 μL of the complete culture medium, at a final density of 2 × 10^3 cells/well, and were cultured for 24 h for proper attachment. Subsequently, the medium was removed, and the cells were exposed to a tested inhibitor at different concentrations for 72 h in 100 μL of the fresh complete culture medium. The sensitivity of the cells to the compounds was detected using the vital dye Alamar Blue (Invitrogen, San Diego, CA, USA). The Alamar Blue assay was performed according to the procedure described by O’Brien et al.. After incubation with the tested bCSE inhibitors, 10 μL of the Alamar Blue reagent was added into each well, the cell culture plates were returned to the humidified incubator, and the fluorescence was read after 3 h. The plates were exposed to an excitation light of 545 nm wavelength, and emission at 600 nm was measured on the CLARIOstar Plus (BMG LABTECH GmbH, Ortenberg, Germany). To determine half-maximal cytotoxic concentration (CC50), a four-parameter sigmoidal curve model (GraphPad Prism 8 software) was fitted to the measurement data.
Background: Resazurin is reduced to fluorescent resorufin, in cell work by metabolically active cells.

Series [7] in a line: physchem. The note with it: for solubility at 2 h: 25 °C, pH 7.4, aqueous buffer, kinetic from dmso stock. In kind it is physicochemical. The procedure:
A stock solution of a compound (10 mM in DMSO, 10 μL) was added to 990 μL of 100 mM sodium phosphate buffer (pH 7.4) and incubated at 25 °C for 2 h with constant shaking. The suspension was filtered through the PVDF membrane filter (Merck Millipore, Burlington, MA, USA). To 320 µL of the filtrate, 80 µL of acetonitrile was added and mixed. The mixture was transferred to a vial and analyzed by ultra-high-performance liquid chromatography (UHPLC) with UV detection. Concentrations were calculated from a 5-point calibration curve. The calibration range was 1 to 100 μM. The controls were diclofenac and nicardipine. All compounds were tested in triplicate.

The nature of series [8]: LogD7.4, miniaturized shake flask method. The note with it: 1-octanol / 100 mM sodium phosphate buffer, pH 7.4, 1-octanol / 100 mM sodium phosphate buffer pH 7.4; read-out: Measured logD7.4. In kind it is physicochemical. As for the experimental part: Coefficients of distribution between 1-octanol and 100 mM sodium phosphate buffer (pH 7.4) were determined by the miniaturized shake flask method. Namely, 5 μL of a 10 mM compound’s solution in DMSO was dissolved in 245 μL of 1-octanol saturated with phosphate buffer. Next, 500 μL of phosphate buffer saturated with 1-octanol was added, followed by mixing for 3 h. […] After that, 50 μL of the octanol phase (top layer) was aspirated and diluted with 500 μL of 1-octanol saturated with phosphate buffer. Then, the remaining octanol phase was removed; 50 μL of the buffer layer was aspirated and diluted with 500 μL of phosphate buffer saturated with 1-octanol. Both the octanol and phosphate buffer samples were analyzed by LC–MS/MS. The distribution coefficient was determined according to the following equation: logD7.4 = log10 (peak area for octanol sample/peak area for buffer sample). […] All compounds were tested in triplicate.

A short description of series [9]: Metabolic stability in rat liver microsomes. The note with it: for microsomal CLint at 1 µM / half-life at 1 µM: rat, microsomes; for microsomal CLint at 1 µM: pH 7.4, CLint; for half-life at 1 µM: pH 7.4, t1/2, rat liver microsomes. As for the experimental part:
The metabolic stability of a test compound was evaluated based on the rate of disappearance during incubation with rat liver microsomes. […] The natural logarithm of a peak area ratio (compound peak area/internal standard peak area) was plotted against incubation time, and the slope of the line was determined.
On the technique in general: Liver microsomes are a subcellular fraction often used to study metabolism.

For series [10], the system named is S. aureus ATCC 25923. Description: MIC of antibiotics alone and with potentiators, broth microdilution. The note with it: S. aureus ATCC 25923, no potentiator. On the technique in general: In broth dilution the organism is exposed to a series of concentrations in liquid medium.
Description: as §3, §4, §5
Series [11] has as its system S. aureus INA00761 (MRSA). The series is described as above. The note with it: no potentiator.
Description: as §3, §4, §5

≈ marks a conversion by molar mass, not a printed value.

Chain of S. aureus cystathionine-γ-lyase (bCSE) (A0A0H3K724 entry or part of it): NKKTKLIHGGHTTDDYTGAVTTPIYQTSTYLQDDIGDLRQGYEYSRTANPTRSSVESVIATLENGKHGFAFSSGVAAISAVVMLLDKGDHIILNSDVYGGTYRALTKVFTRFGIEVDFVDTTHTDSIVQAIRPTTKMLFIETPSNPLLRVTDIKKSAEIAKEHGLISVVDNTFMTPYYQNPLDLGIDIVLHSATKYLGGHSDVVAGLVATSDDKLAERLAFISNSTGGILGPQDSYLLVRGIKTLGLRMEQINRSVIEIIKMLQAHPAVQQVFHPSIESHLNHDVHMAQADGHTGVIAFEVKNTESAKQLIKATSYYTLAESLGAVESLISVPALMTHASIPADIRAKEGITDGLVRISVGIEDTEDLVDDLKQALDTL

Take `CO/N=C(\C(=O)N[C@@H]1C(=O)N2C(C(=O)[O-])=C(C[N+]3(C)CCCC3)CS[C@H]12)c1csc(N)n1` [Cefepim, cefepime]: the “susceptibility of isolate (Sensitive to / Resistant to)” value in series [1] is “Resistant to”. For the same molecule, the “MIC of antibiotic alone” value is 256 µg/mL in series [2] and over 512 µg/mL in series [3].

As to `O=C(O)c1cccn1Cc1ccc2ccccc2c1` [Compound 5b], the IC50 is over 500 µM in [4] (IC50 (uM), bCSE enzymatic IC50, rounded, repeated in Table S13); over 500 µM in series [4] (IC50 (uM), bCSE enzymatic IC50, rounded, repeated in Table S14); over 500 µM in series [4] (IC50 (uM), bCSE enzymatic IC50, rounded, repeated in Table S15); over 500 µM in [4] (IC50 biochemical assay bCSE, purified bCSE 0.02 μM, 100 μM L-cysteine, WSP5 probe, mean ± SD); over 500 µM in series [5]. The molecule also displayed a 50% cytotoxic concentration (CC50) at 72 h in [6] of 848 ± 72.2 µM.

In [7], `O=C(O)Cc1ccccc1Nc1c(Cl)cccc1Cl` [Diclofenac sodium] yielded a solubility at 2 h of over 100 µM.

Regarding `C[C@@H](O)[C@H]1C(=O)N2C(C(=O)O)=C(S[C@@H]3CN[C@H](C(=O)N(C)C)C3)[C@H](C)[C@H]12` [Meropenem, meropenem], the “susceptibility of isolate (Sensitive to / Resistant to)” value in series [1] is listed as “Resistant to”. Also, the “MIC of antibiotic alone” value came out at 16 µg/mL in series [2] and 64 µg/mL in series [3].

Take `COC(=O)C1=C(C)NC(C)=C(C(=O)OCCN(C)Cc2ccccc2)C1c1cccc([N+](=O)[O-])c1` (centres unmarked) [Nicardipine]: the solubility at 2 h in [7] came out at 5.16 ± 0.23 µM (≈ 2.47 µg/mL). In series [7] (2 h, pH 7.4), this molecule gave a Solubility of 5.2 µM (≈ 2.49 µg/mL).

With `CC(=O)Nc1ccc(O)cc1` [Paracetamol, reference compound], the logD in series [8] amounted to 0.29 ± 0.02.

Take `O=c1ccc2ccc(O)cc2o1` [Umbelliferone]: the CLint in [9] (rat liver microsomes, cofactor NADPH, 1 µM) came out at 8.8 µL/min/mg. Besides, the intrinsic clearance (microsomal CLint) at 1 µM in series [9] (rat liver microsomes, cofactor NADPH) was found to be 8.81 ± 1 µL/min/mg; in series [9] (rat liver microsomes, cofactor UDPGA) it was 180 ± 0.7 µL/min/mg. In addition, the half-life at 1 µM in series [9] (cofactor NADPH) was determined as 2.64 ± 0.301 h; in series [9] (cofactor UDPGA) it was 0.1283 ± 0.0005 h.

With `CC1(C)S[C@@H]2[C@H](NC(=O)[C@H](N)c3ccccc3)C(=O)N2[C@H]1C(=O)O` [amp, ampicillin], the “MIC of antibiotic alone” value in [10] is 0.3 µg/mL; in series [11] it was “res”; in series [11] (listed as ampicillin) it was “resistant”.

Turning to `NC[C@H]1O[C@H](O[C@H]2[C@H](O)[C@@H](O[C@H]3O[C@H](CO)[C@@H](O)[C@H](N)[C@H]3O)[C@H](N)C[C@@H]2N)[C@H](O)[C@@H](O)[C@@H]1O` [km, kanamycin], the “MIC of antibiotic alone” value in [10] is 12.5 µg/mL; in [11], “res”; in series [11] (listed as kanamycin), “resistant”.

Consider `CCn1cc(C(=O)O)c(=O)c2cc(F)c(N3CCNCC3)cc21` [nor, norfloxacin], for which the “MIC of antibiotic alone” value worked out at 2.5 µg/mL in series [10] and 10 µg/mL in series [11].

The term IC50 denotes the point on the concentration scale where inhibition reaches its midpoint. The term CC50 denotes the concentration that lowers cell viability or growth by half. Low readings indicate harm at low concentration, high ones better tolerance by the cells. By solubility is commonly meant how much of the substance goes into solution per volume. A low value points to a poorly soluble substance. A word on the Solubility: it is how much of the substance goes into solution per volume. Higher therefore signals a readily soluble substance. In general, microsomal CLint refers to the capacity of the preparation to metabolise the compound, expressed as a volume cleared per time. A lower microsomal CLint goes with slow turnover. Usually half-life stands for the time needed for the level to fall by half in the phase considered. Read a low half-life as fast loss.
